Data set [1] is described as follows: Hydrolysis of Compound 10 in aqueous solution. In kind it is physicochemical. As to the method:
Mannitol (39.2 mg) and Kleptose® HP (hydroxypropyl-β-cyclodextrin; 49 mg) are dissolved in sterile water for injection (599 mg) at room temperature. Compound 10 (1.167 mg) is dispersed in tert-butanol (312 mg) by magnetic stirring protected from light at room temperature during 10 minutes. A few mL of the Mannitol/Kleptose® solution is poured into the Compound 10 dispersion in order to solubilize the Compound 10. After forming a solution, the remaining Mannitol/Kleptose® solution is added. The solution is stirred for a few minutes while protected from light. In Formulation 7, the pH is adjusted with phosphoric acid (2M) down to pH 4.0±0.2. In Formulation 8, the pH is about 8 and is not adjusted. The pre-lyophilization solution is filtered through a sterile disposable PVDF filter of 0.22 μm (Stericup Millipore®) to form a clear solution. 4 mL of the filtered pre-lyophilization solution is transferred into a 10 mL bottle and then freeze-dried.
Analysis of the pre-lyophilization solutions for Formulations 7 and 8 were performed at T0 and after 48 hours storage at 25° C. Compound 1 was analyzed because Compound 10 is known to convert to Compound 1 in aqueous solution.

Data set [2] deals with RANKL-induced osteoclastoenesis. To be noted: in vitro; cited from earlier work.
Data set [3] is described as follows: Stability of Compound 1 drug substance. In kind it is physicochemical. An excerpt:
Piva, R. R., et al., Blood, 1 Mar. 2008, vol 111, No. 5, p 2765-2775. […] Id.
Compound 1 is currently undergoing clinical trials.

The subject of another data set is angiogenesis. To be noted: in vitro; cited from earlier work.
The test system of data set [4] is normal human epithelial cells, bone marrow progenitors, and bone marrow-derived stromal cells. To be noted: cited from earlier work.

As to “6-(2S,3R)-N-[(1R)-1-(1,3,6,2-dioxazaborocan-2-yl)-3-methylbutyl}-3-hydroxy-2-{(6-phenylpyridin-2-yl)formamido]butanamide [Compound 10]”, the “Hydrolysis in aqueous solution” value in data set [1] (aqueous solution, converts to Compound 1) was “readily hydrolyzed”. Moreover, the “Compound 10 remaining in obtained lyophilized cake” value in data set [1] (lyophilized cake of Formulations 7 and 8 (4 mL fill)) was under 0.01 mg.

Consider `CC(C)C[C@H](NC(=O)[C@@H](NC(=O)c1cccc(-c2ccccc2)n1)[C@@H](C)O)B(O)O` [Compound 1, [(1R)-1-[[(2S,3R)-3-Hydroxy-2-[[(6-phenylpyridin-2-yl)carbonyl]amino]-1-oxobutyl]amino]-3-methylbutyl]boronic acid], for which, in data set [2], the RANKL-induced osteoclastoenesis result is reported as “represses”. In data set [3] (exposure to air and/or light, some batches degrade at temperatures as low as 5° C.), the “Stability of the compound” value was “unstable and subject to degradation upon exposure to air and/or light”. The Stability in solution entry in data set [3] (solution) was “unstable in solution”. For the same molecule, the Anti-angiogenic activity result in the data set with angiogenesis is recorded as “strong anti-angiogenic activity”. The Cytotoxicity profile result in data set [4] is given as “favorable cytotoxicity profile”.

The record behind these values is patent US8785418B2, “Lyophilization cakes of proteasome inhibitors” (Cephalon, Inc., priority 2009, dated 2014).
